Test results reported in US20070135375A1, “Sulfamoyl sulfonate prodrugs” (priority 2005, published 2007).
Where two headings read alike, the source gives them in different places.

Assays:
[1] = molecular target: human carbonic anhydrase II (Homo sapiens, UniProt P00918); test: Carbonic anhydrase inhibition, photometric, nitrophenyl acetate conversion (CA II); assay type: biochemical
Excerpt: (§1) Photometric determination of the inhibition of human carbonic anhydrase I or II with sulfonamides or sulfamates on microtiter plates with the aid of enzymatic conversion of nitrophenyl acetate with a color change from colorless to yellow.

[2] = molecular target: human carbonic anhydrase I (Homo sapiens, UniProt P00915); test: Carbonic anhydrase inhibition, photometric, nitrophenyl acetate conversion (CA I); assay type: biochemical
human carbonic anhydrase I, sequence (P00915 whole entry): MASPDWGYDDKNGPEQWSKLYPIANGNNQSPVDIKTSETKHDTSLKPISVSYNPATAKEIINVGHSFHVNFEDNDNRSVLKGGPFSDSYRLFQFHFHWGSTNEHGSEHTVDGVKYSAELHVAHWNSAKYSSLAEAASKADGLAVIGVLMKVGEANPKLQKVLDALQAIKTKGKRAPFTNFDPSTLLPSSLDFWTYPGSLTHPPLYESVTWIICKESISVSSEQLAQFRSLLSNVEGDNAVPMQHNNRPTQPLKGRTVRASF
Excerpt: as §1

[3] = Hydrolysis in aqueous buffer of various pH values at 37° C., HPLC; assay type: physicochemical
Experimental: The compounds according to the invention were measured as a DMSO solution in an aqueous buffer of various pH values at 37° C.
(§2) The quantification took place through HPLC (HPLC column: Xterra MS C18 2.5 μm 4.6×30 mm). Based on the test substances to be measured, the following gradient system was used for the HPLC: • Acidic gradient: A: water/0.01% trifluoroacetic acid, B: acetonitrile/0.01% trifluoroacetic acid—0 min 5% B, 0-3 min 65% B, 3-5 min 65% B, 5-6 min 5% B • Alkaline gradient: A: water/0.025% ammonia, B: acetonitrile/0.025% ammonia—0 min 20% B, 0-3 min 80% B, 3-5 min 80% B, 5-6 min 20% B. The quantification took place after 1 and 2 hours and after 24 hours.

[4] = Solubility in water (kinetic nephelometry / thermodynamic HPLC); assay type: physicochemical; conditions: for solubility: 25 °C, aqueous buffer
Experimental: The compounds according to the invention were measured as 10 mmol DMSO solution in a 0.01 M phosphate buffer solution at pH 7.4 and 25° C. with nephelometry and turbidity.
While in a turbid state, the solution to be tested was added drop by drop to the buffer solution until a precipitate settled.
The precipitate was detected in a dilution series (compounds in a phosphate buffer solution according to the invention) by nephelometry.
b.) Thermodynamic Measurement:
The compounds in solid form according to the invention were added to an excess of an aqueous buffer system of various pH values. It was stirred 24 hours at 25° C. After centrifuging, the solution was examined with HPLC (HPLC: column: Xterra MS C18 2.5 μm, 30×4.6 mm).

[5] = Stability in simulated gastric juice (NaCl solution with pepsin, pH~1.2), HPLC; assay type: physicochemical; conditions: 30 min, 37° C., column head pH = 1, cells note pH = 1.2 (gastric juice)
Experimental: as §2, with “hours. Stability in Simulated Gastric Juice:” for “hours.”
Solutions of the compounds according to the invention were incubated at 37° C. in simulated gastric juice (aqueous NaCl solution with pepsin, pH˜1.2).
The quantification took place through HPLC (HPLC-column: Xterra MS C18 2.5 μm 4.6×30 mm) using the gradient system: […]
A: water/0.01% trifluoroacetic acid, B: acetonitrile/0.01% trifluoroacetic acid—0 min 5% B, 0-3 min 65% B, 3-5 min 65% B, 5-6 min 5% B.
The quantification took place after 0.5, 1, 1.5 and 2 hours.

[6] = human carbonic anhydrase II, read-out: CA II IC50
[7] = human carbonic anhydrase I, read-out: CA I IC50

Row | Molecule | IC50 [1, 6] [nM] | IC50 [2, 7] [nM] | Decomposition in % ([3]; pH = 1, 37° C., 1 h) [%] | Decomposition in % ([3]; pH = 1, 37° C., 2 h) [%] | Decomposition in % ([3]; pH = 1, 37° C., 24 h) [%] | Decomposition in % ([3]; pH = 7.4, 37° C., 1 h) [%] | Decomposition in % ([3]; pH = 7.4, 37° C., 2 h) [%] | Decomposition in % ([3]; pH = 7.4, 37° C., 24 h) [%] | Solubility in Water [4] | Solubility in Water (in words) [4] | Decomposition in % [5] [%] | solubility [4] [µg/mL] | IC50 [1] [nM] | IC50 [2] [nM]
1 | C[C@]12CC[C@@H]3c4ccc(OS(N)(=O)=O)cc4CC[C@H]3[C@@H]1CC[C@@H]2O [Estradiol-3-sulfamat, Estradiol-3-sulfamate, reference compound] | 34 | 157 ± 10.6 | – | – | – | – | – | – | – | – | – | – | – | –
2 | C[C@@H]1CC2=CC(=O)CC[C@]2(C)[C@H]2CC[C@]3(C)[C@@H](OS(=O)(=O)c4cccc(S(N)(=O)=O)c4)CC[C@H]3[C@H]12 [3-oxo-7α-methylandrost-4-en-17β-yl 3′-sulfamoylphenyl sulfonate] | 120 | 2300 | 6 | 11 | 71 | 6 | 11 | 70 | About 6 mg/l | – | – | – | – | –
3 | CCC(=O)O[C@H]1CC[C@H]2[C@@H]3CCC4=CC(=O)CC[C@]4(C)[C@H]3CC[C@]12C [Testosterone Propionate, 3-Oxoandrost-4-en-17β-yl n-propionate, reference compound] | – | – | 0 | 0 | 0 | 0 | 0 | 0 | – | insoluble | 0 | – | – | –
4 | C[C@]12CC[C@@H]3c4ccc(O)cc4CC[C@H]3[C@@H]1CC[C@@H]2OS(=O)(=O)c1cccc(S(N)(=O)=O)c1 [3-Hydroxyestra-1,3,5(10)-trien-17β-yl 3′-sulfamoylphenyl Sulfonate] | 81 | 1700 | 7 | 14 | 80 | 6 | 13 | 84 | – | – | 4 | 3 | – | –
5 | Zidovudine-sulfamoylphenyl Sulfonate [Zidovudinsulfonat] | 1100 | 2900 | – | – | – | – | – | – | – | – | – | – | – | –
6 | C[C@]12CC[C@H]3[C@@H](CCC4=CC(=O)CC[C@@]43C)[C@@H]1CC[C@@H]2OS(=O)(=O)c1cccc(S(N)(=O)=O)c1 [3-Oxo-androst-4-en-17β-yl 3′-sulfamoylphenyl Sulfonate] | – | – | 6 | 11 | 78 | 6 | 12 | 75 | – | – | 3 | 5 | 120 | 2300
